Data as given in article PMC6445123 (Scientific Reports, 2019).

Target: T1, Casp6-K284A-LS-SS (Homo sapiens, UniProt P55212, K284A)
T1 construct: obtained by co-expression and purification of LS and SS subunits of WT, L200A or K284A Casp6 from E. coli; His (C); made in house; host or cells: E. coli BL21(DE3)pLysS
T1 sequence (P55212 24-179 limits assumed): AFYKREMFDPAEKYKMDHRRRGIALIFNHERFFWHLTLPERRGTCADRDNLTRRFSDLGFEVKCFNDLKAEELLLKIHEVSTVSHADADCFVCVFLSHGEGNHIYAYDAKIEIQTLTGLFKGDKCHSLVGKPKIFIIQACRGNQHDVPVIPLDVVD
T1 sequence (P55212 194-293 K284A limits assumed): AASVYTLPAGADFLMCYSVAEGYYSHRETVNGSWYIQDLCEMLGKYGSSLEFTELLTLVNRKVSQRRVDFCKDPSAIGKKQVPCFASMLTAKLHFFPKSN
Assay: C13 dose-response and global-fit kinetics on Casp6-K284A-LS-SS
Format: biochemical
Description: Figure 4 Compounds S10G and C13 inhibit Casp6 through a noncompetitive mode of inhibition. (a) Michaelis-Menten kinetic plots of Casp6 enzymatic activity in presence of 1% DMSO or increasing doses S10G (top) and C13 (bottom). Data points represent mean ± SD of three independent experiments. (b) Lineweaver-Burk plots of Casp6 inhibition with S10G (top) and C13 (bottom). Red circle indicates the point where lines converge. (c) The relationship between the slopes of lines in Lineweaver-Burk plot analyses in panel (b) and inhibitor concentration. (d) Plots of IC50 values for S10G (top) and C13 (bottom) with varying concentrations of Ac-VEID-AFC substrate. Data points represent mean ± SD from three independent experiments for each substrate concentration. (e) Binding model of C13 into CASP6 putative allosteric site, derived from molecular docking. Left: C13 (green sticks) occupies the putative allosteric site (white surface and lines; Ala-mutated residues L200 and K284 shown as purple sticks). Right: predicted interactions with Casp6 allosteric pocket residues (pink balls polar, circled blue or red for basic and acidic, respectively. Green balls = hydrophobic. Dotted-arrow: blue and green for backbone and sidechain hydrogen-bond interactions, respectively. Blue shade = solvent exposed area). Dose-response curves of C13 for Casp6-WT and Casp6-K284A (f), and copurified LS and SS of Casp6-WT-LS-SS, Casp6-L200A-LS-SS, and Casp6-K284A-LS-SS (g). Data represent mean ± SD from at least three independent experiments. (h) Global fit of kinetics data to a noncompetitive (mixed) inhibition model for Casp6-WT-LS-SS (left panel, R^2 = 0.9635), Casp6-L200A-LS-SS (middle panel, R^2 = 0.9699), and Casp6-K284A-LS-SS (right panel, R^2 = 0.9794) in the presence of 0–50 µM C13. Data points on the graph represent the mean ± SD, and calculated Ki values represent mean ± standard error (SE) from three independent experiments.
To determine the importance of C13 interactions with L200 and K284 for C13 binding in the Casp6 allosteric pocket, we have generated Casp6-L200A and Casp6-K284A mutants and investigated inhibition with C13. In contrast to Casp6-WT, purified Casp6-L200A and Casp6-K284A underwent poor self-processing when overexpressed in E. coli from a construct encoding a full-length Casp6 (Fig. S5). Casp6-L200A partially self-processed at the TETD23 site generating full-length Casp6 and Casp6 without a prodomain (ΔCasp6). Casp6-K284A underwent complete processing at the TETD23 site but, in contrast to Casp6-WT, it only partially self-cleaved at the TEVD193 site generating ΔCasp6, LS-L and SS fragments (Fig. S5). […] Fully processed forms of Casp6-WT-LS-SS, Casp6-L200A-LS-SS, and Casp6-K284A-LS-SS were obtained by co-expression and purification of LS and SS subunits of WT, L200A or K284A Casp6 from E. coli (Fig. S5). […]
Compounds, S10G (2.5 µM, 4.2 µM, 10 µM), and C13 (5 µM, 14 µM, 50 µM), were added to 20 nM active site titrated Casp6 and enzyme activity was measured with eight different Ac-VEID-AFC substrate concentrations (5.0 μM–200 μM) using fluorescence-based Casp6 activity assay as above. The apparent KM and Vmax values were determined through nonlinear regression analysis of Michaelis-Menten plots (v vs. [S]) using GraphPad Prism 5. The inhibition mode was determined from the pattern of converging Lineweaver-Burk plots (1/v vs. 1/[S])[54]. […]

## COC(=O)c1cc(CNC(=O)C2Cc3ccccc3O2)cc(NC(=O)c2ccco2)c1 (centres unmarked) [Compound C13]
  fold higher IC50 for Casp6-K284A-LS-SS compared to Casp6-WT-LS-SS: 1.5 fold
  fold higher Ki for Casp6-K284A-LS-SS compared to Casp6-WT-LS-SS: 1.6 fold
Ac-VEID-AFC hydrolysis, increasing substrate and C13 concentrations
  inhibition model (best global fit), Casp6-K284A-LS-SS: noncompetitive (mixed) model inhibition
Copurified LS and SS, read-out: IC50 of C13 for Casp6-K284A-LS-SS (Fig. 4g)
  IC50: 47.8 ± 6 µM
Global fit to noncompetitive (mixed) model, 0–50 µM C13, mean ± SE
  Ki: 11.8 µM
